Some results are limits rather than exact numbers.

These results are taken from patent US20180015100A1, “COMBINATION PRODUCTS FOR THE TREATMENT OF BACTERIAL INFECTIONS AND METHODS OF PRODUCING OR DOSING OF SAME” (priority 2016, published 2018).

For data set [1] the following is noted: in vivo, cited from earlier work.
For data set [2] the following is noted: plasma; cited from earlier work.
Data set [3] concerns 13 Enterobacteriaceae isolates. Format: cell-based. As to conditions: with clavulanate 2:1.
Data set [4] relates to Escherichia coli isolates. In words: MIC of cephalosporins alone or with clavulanate/tazobactam. Format: cell-based. As to conditions: clavulanate 2:1, tazobactam 4 μg/mL.
Data set [5] relates to ESBL-producing Enterobacteriaceae isolates (panel of nineteen). The data set is described as follows: MIC of cephalosporins alone or with clavulanate/tazobactam, whole panel. Format: cell-based. As to conditions: cephalosporin alone; 19 isolates.
For data set [6], the system named is Klebsiella pneumoniae isolates. The data set is described as follows: MIC of cephalosporins alone or with clavulanate/tazobactam. As to conditions: clavulanate 2:1, tazobactam 4 μg/mL. Format: cell-based.
Data set [7] has as its system Citrobacter freundii isolates. The data set is described as above. Format: cell-based. As to conditions: clavulanate 2:1, tazobactam 4 μg/mL.
Data set [8] deals with 385 Escherichia coli and 126 Klebsiella pneumoniae isolates. In words: MIC, MIC50 and MIC90 by reference broth microdilution against 511 UTI/bloodstream isolates (USA and Europe 2014-2015). Format: cell-based. As to conditions: 511 isolates. For orientation: In broth dilution the organism is exposed to a series of concentrations in liquid medium.
Data set [9] has as its system Klebsiella oxytoca isolates. The data set is described as follows: MIC of cephalosporins alone or with clavulanate/tazobactam. Format: cell-based. The following applies: clavulanate 2:1, tazobactam 4 μg/mL.
The test system of data set [10] is Enterobacter aerogenes isolates. The data set is described as above. Format: cell-based. As to conditions: Klebsiella aerogenes, clavulanate 2:1, tazobactam 4 μg/mL.
Data set [11] has as its system Enterobacter cloacae isolates. The description is as above. Format: cell-based. The following applies: clavulanate 2:1, tazobactam 4 μg/mL.

Broadly, the bioavailability is the share of a dose that reaches the circulation, judged against a reference dose that is usually intravenous. As to `CO/N=C(\C(=O)N[C@@H]1C(=O)N2C(C(=O)O)=C(/C=C\c3scnc3C)CS[C@H]12)c1csc(N)n1` [Cefditoren, cefditoren], in data set [1] (200 mg), the “Mean Cmax” value is 1800 ng/mL and the “Mean fCmax” value is 0.22 µg/mL. Moreover, the bioavailability in data set [1] (po) was 14%. Further, in data set [1], the “Mean unbound plasma concentration following one elimination half-life” value was 110 ng/mL and the “peak free drug concentrations” value was ≤ 0.3 µg/mL. Besides, in [2], the “Protein binding (% bound)” value is 88 (plasma) % bound. In addition, the “MICs range against ESBL+ isolates (Table 3)” value in data set [3] is 0.12 to 2 µg/mL.
A word on the MIC: it is the least concentration at which growth counts as inhibited. As a reminder, the MIC50 is an inhibitory concentration at the 50% level, which refers to growth in some studies and to a panel of isolates in others. Lower therefore signals higher susceptibility. Usually MIC90 stands for an inhibitory concentration at the 90% level, which refers to growth in some studies and to a panel of isolates in others. Regarding `CO/N=C(\C(=O)N[C@@H]1C(=O)N2C(C(=O)[O-])=C(C[N+]3(C)CCCC3)CS[C@H]12)c1csc(N)n1` [Cefepime, cefepime], the minimal inhibitory concentration (MIC) is ≤ 0.031 µg/mL in [4] (AECO001 (no ESBL)); > 32 µg/mL in data set [4] (AECO1078 (CTX-M-15)); 4 µg/mL in data set [4] (AECO1147 (CTX-M-15)); 32 µg/mL in data set [4] (AECO1157 (CTX-M-15, TEM-OSBL)); > 32 µg/mL in data set [4] (AECO1159 (CTX-M-15)); > 32 µg/mL in data set [4] (AECO1169 (CTX-M-1, TEM-OSBL)). The MIC in data set [4] (AECO1172 (CTX-M-14)) was > 32 µg/mL; in data set [6] (AKPN1159 (SHV-12)) it was 2 µg/mL; in [6] (AKPN1161 (SHV-7)), 1 µg/mL; in [6] (AKPN1162 (CTX-M-15, SHV-12)), > 32 µg/mL; in [6] (AKPN1166 (CTX-M-14, SHV-12)), 4 µg/mL; in data set [6] (AKPN1167 (SHV-2)), 8 µg/mL. For the same molecule, the MIC in data set [7] (ACFR1034 (CTX-M-15, TEM-OSBL)) is > 32 µg/mL; in [7] (ACFR1035 (CTX-M-3, TEM-OSBL)) it was > 32 µg/mL; in data set [9] (AKOX1005 (SHV-2, TEM-1, DHA-1)) it was 0.25 µg/mL; in data set [9] (AKOX1009 (CTX-M-15)), 32 µg/mL; in [10] (AEAE1027 (CTX-M-14)), 8 µg/mL; in data set [10] (AEAE1029 (CTX-M-15)), > 32 µg/mL. In addition, the MIC in data set [11] (AECL1065 (CTX-M-15)) and in [11] (AECL1067 (CTX-M-3)) was > 32 µg/mL throughout. In addition, in [5], the “ESBL-producing isolates with MIC<8 μg/mL” value is on record as 4 of 19. In addition, the MIC50 in data set [8] is > 16 µg/mL. Besides, in [8] (EUCAST 2016 criteria), the “EUCAST % I” value is given as 10.0%. For the same molecule, the MIC90 in data set [8] (read-out: MIC90) was > 16 µg/mL.
